Measured values as given in patent publication EP1222194B1, “7-ACYLAMINO-3-HETEROARYLTHIO-3-CEPHEM CARBOXYLIC ACID ANTIBIOTICS AND PRODRUGS THEREOF” (priority 1999, dated 2001).
In brackets after ≈: the same amount, converted by molar mass.

Key:
[1] = Serum binding determination by ultrafiltration and HPLC; format: in vitro ADME; conditions: % of compound bound to serum as determined by HPLC; human serum
Experimental: The more accurate measurement of binding of selected cephalosporin compounds was performed using HPLC as described below. […] Serum is placed in a shaking water bath preheated to 37 ± 2 °C for 5 to 10 minutes to heat serum to 37 °C. Serum pH is measured and recorded, while serum is 37 °C using pH paper. Measurements are taken twice, 3 minutes apart. […] After blowing for several minutes, serum is heated to 37 °C and measurements are taken twice, 3 minutes apart using pH paper to determine the pH. Store at 4 °C. The serum is stable for 7 days. Always check the pH before each use. • 2. Before any centrifugation, the centrifuge temperature must be adjusted to 25 ± 2 °C. Preheat the centrifuge by spinning for 45 minutes at the same speed to be used in the assay (1900 g) with two tubes of water in the rotor and the temperature set to 25 °C. When the centrifuge stops immediately check the temperature of the tubes of water with a calibrated thermometer. The temperature of the tubes of water must be 25 ± 2 °C. […] Continue spinning and measuring the temperature and adjusting the setting until the temperature is 25 ± 2 °C. • 3. Prepare blank ultrafiltrate by pipetting blank pH 7.4 serum into an Amicon Centrifree Micropartition devices, centrifuge: fixed angle rotor, 1900 g, 25 °C for 20 minutes. Heat ultrafiltrate in a shaking water bath preheated to 37 °C. Measure ultrafiltrate pH and adjust to the pH of the serum (7.4 ± 0.2). • 4. Pipette 190 ul of blank ultrafiltrate into a set of labeled 1.7 mL polypropylene microfuge tubes for 3 of each level. Pipette 10 µL of the appropriate standard stock 50, 200, 1000 µg/mL to make standards 2.5, 10, and 50 µg/mL respectively. Vortex each tube well. One set of the standard samples are mixed 1:1 with 0.2 M acetic acid and injected onto the HPLC (MSTD). These samples are the membrane standards and will be used to compare to the other standards. Pipette 190 ul of ultrafiltrate and spike with 10 ul of whatever solution (e.g. water) the standards are prepared in to make the zero standard. • 5. Pipette 475 µL of blank heated pH 7.4 serum into a set of labeled 1.7 mL polypropylene microfuge tubes for 2 of each (Serum A and Serum B). Pipette 25 µL of the 1000 µg/mL standard stock into each tube, vortex each tube well to make serum standard 50 µg/mL. Remove 100 µL of serum and deproteinate with 200 µL 4% TCA while vortexing to make serum time 0 (serum 50, T0). Place serum tubes in a shaking water bath at 37 °C for 10 minutes. Pipet 100 µL of serum out and deproteinate with 200 µL 4% TCA, to make serum time 10 min (serum 50, T10). Pipet 200 ul serum standard 50 µg/mL into an ultrafiltration device, which is not treated with TCA, to determine free drug in samples (Rat Serum 50). • 6. Transfer serum and standard samples to labeled Amicon Centrifree Micropartition filters, and centrifuge: 1900 g, 25 °C for 10 minutes. The extracted serum samples (T0 and T 10) are spun down and supernatant is loaded into HPLC vials. • 7. 100 µL of ultrafiltrate sample and 100 µL of 0.2 M acetic acid were mixed together to stabilize the compound in ultrafiltrate. • 8. Transfer entire stabilized ultrafiltrate solution to a labeled autoinjector HPLC vial cap with Teflon septa, and inject on HPLC.
Peak height or area is used in a weighted linear regression.
High levels of binding to human serum proteins limits the concentration of compound available for antibacterial activity in the body.

[2] = system: S. aureus ATCC 13709 (Smith diffuse); assay: Murine model for lethal bacteremic peritonitis (septicemia); format: in vivo, mice; conditions: for Efficacy in murine septicemia %survival: subcutaneously at 0 and 2 hrs post-challenge
Experimental: 10 mice/group were injected intraperitoneally with 2.98x10^7 cfu S. aureus ATCC 13709 (Smith diffuse) and treated at 0 and 2hrs post-challenge with serial two-fold doses of new cephalosporin antibiotic, imipenem and vancomycin subcutaneously in order to determine the ED50. Male Swiss-Webster mice weighing originally 24.2 - 26.1 g were obtained from Charles Rivers Labs, Hollister, CA. Mice were housed 10 per cage and given free access to water and mouse chow.
Staphylococcus aureus ATCC 13709 (Smith diffuse) was grown overnight at 37 °C in Brain-heart Infusion broth (BHIB). The following morning, it was subcultured to fresh BHIB and incubated for 4-5h at 37 °C. The log-phase growth cells were washed once with physiological saline and adjusted to the desired concentration by correlation of absorbency at OD 600 nm with predetermined plate counts (NCCLS, 1994). The cell suspension was mixed with an equal volume of sterile 14% hog-gastric mucin (2). Inoculum was kept in an ice bath until used (<1h).
Mice were challenged via an injection of 0.5 mL bacterial suspension intraperitoneally. The bacterial challenge was 2.98 x 10^7 cfu/mouse.
Imipenem (Primaxin IV; Lot 7294A), vancomycin (Vancocin; Lot 8MU60W), and new cephalosporin antibiotic were prepared by serial two-fold dilutions to concentrations of 0.078 - 0.005 mg/mL, 1.2 - 0.075 mg/mL, 0.3 - 0.02 mg/mL, 0.3 - 0.02 mg/mL and 0.3 - 0.02 mg/mL respectively in sterile water (1). All antibiotics were administered subcutaneously in 0.1 mL volumes at 0 and 2 hours post-challenge. Concentrations of all compounds are based on the weight of the bioactive ingredients.
The 50% effective dose (ED50) was calculated by the probit method (3) utilizing a program entitled Probit (Nycomed-Salutar).

[3] = In vitro stability of compounds in rat serum; format: in vitro ADME; conditions: compared with other 7-acylamino-3-heteroarylthio-3-cephem carboxylic acids
Experimental: In general, compounds from the class of 7-acylamino-3-heteroarylthio-3-cephem carboxylic acids have higher chemical reactivity and lower stability towards chemical or enzymatic decomposition than most typical cephalosporins. […] Results shown in Table 2 represent percentage loss of the initial amount of cephalosporin compound upon 60 min incubation in rat serum.
Procedure for measuring degree of degradation of cephalosporin compounds in rat serum was as follows:
Fresh control rat serum (heparinized and stored frozen) is preincubated at 37 °C for 15 min in a shaking water bath. pH is measured using test strips. 25 µL of a 2 mg/mL solution cephalosporin compound (in water) of is then added to each matrix to make 1000 µL. Solutions were incubated at 37 °C. 100ul of solution was taken out at time = 0, 15, 30, and 60 min post dose and added 200 µL 4% trichloroacetic acid, vortexed, and centrifuged for 10 min at 14,000 rpm in an Eppendorfmicrocentrifuge. 25 µL of each supernatant was injected onto HPLC. Experiment was repeated using 25 µL of a 0.2 mg/mL cephalosporin compound. Degradation is measured as the percentage of HPLC peak area at time t relative to peak area at time 0.
HPLC conditions: Beckman Ultrasphere C18 column. 5u. 4.6mm x 25cm. 1 mL/min of 95% 0.1 M ammonium acetate, pH 6, 5% ACN going to 75% buffer/organic over 20min. UV monitored at 254 and 280 nm.

E. coli ATCC25992 = assay: Broth microdilution MIC (NCCLS); format: cell-based; conditions: Escherichia coli, Mueller-Hinton Broth, 24 h at 35 °C
Experimental: (§1) Compounds were evaluated for antimicrobial activity against a panel of bacterial strains using a broth microdilution assay performed as recommended by the NCCLS (1). The minimum inhibitory concentration (MIC) was defined as the lowest concentration of drug which prevented the growth of the bacteria. The following 16 organisms constituted the primary panel of evaluation:
(§2) For this primary panel, the assay was performed in Mueller-Hinton Broth (MHB) with a final bacterial inoculum of 5 x 10^5 CFU/mL (from an early-log phase culture) and a final volume of 100 µL. Control drugs, including imipenem, vancomycin, Penicillin G, dicloxacillin (vs. MSSA ATCC29213 only), and new compounds were prepared at a concentration equivalent to 2-fold the desired final concentration. Dilution of compounds were prepared directly in the plates by serial 2-fold dilution using a multichannel pipette. Positive and negative growth control were included in each plate.
(§3) The bacterial inocula were prepared as follows. For each strain one isolated colony was used to inoculate a volume of 8 mL of Mueller-Hinton broth and these cultures were incubated overnight (20h) at 35 °C in a shaking incubator. At the exception of Enterococcus strains, culture were then diluted 1:10 and allowed to grow for an additional one hour at 35 °C in a shaking incubator. The inocula were prepared by diluting the early log-phase (1h) cultures 1:1000 with fresh Mueller-Hinton broth. E. faecium and E. faecalis were prepared by diluting overnight cultures 1:333 and 1:666, respectively, with fresh Mueller-Hinton broth . A volume of 50 µL of the inocula was added to each well. […] The exact inocula were determined by applying […] of 10-fold serial dilution of the bacterial suspensions on TSA. After overnight incubation at 35 °C, colony forming units were manually counted.
(§4) Microtiter plates were incubated during 24 h at 35 °C and were read using a microtiterplate reader (Molecular Devices) at 650 nm as well as by visual observation using a microtiterplate reading mirror.

E. faecium A491 (Amp^R) = assay: Broth microdilution MIC (NCCLS); format: cell-based; conditions: Enterococcus faecium, Mueller-Hinton Broth, 24 h at 35 °C
Experimental: as §1, §2, §3, §4

[4] = system: S. aureus ATCC 33593 (Meth^R); assay: Broth microdilution MIC (NCCLS); format: cell-based; conditions: Staphylococcus aureus, ATCC33593, Mueller-Hinton Broth, 24 h at 35 °C
Experimental: as §1, §2, §3, §4

S. aureus ATCC 29213 = assay: Broth microdilution MIC (NCCLS); format: cell-based; conditions: Staphylococcus aureus, ATCC29213, Mueller-Hinton Broth, 24 h at 35 °C
Experimental: as §1, §2, §3, §4

[5] = system: S. aureus Spain #356 (Meth^R); assay: Broth microdilution MIC (NCCLS); format: cell-based; conditions: Staphylococcus aureus, Mueller-Hinton Broth, 24 h at 35 °C
Experimental: as §1, §2, §3, §4

[6] = system: S. aureus 76 (Meth^R)(lac^+); assay: Broth microdilution MIC (NCCLS); format: cell-based; conditions: Staphylococcus aureus, Mueller-Hinton Broth, 24 h at 35 °C
Experimental: as §1, §2, §3, §4

P. aeruginosa ATCC 27853 = assay: Broth microdilution MIC (NCCLS); format: cell-based; conditions: Pseudomonas aeruginosa, ATCC27853, Mueller-Hinton Broth, 24 h at 35 °C
Experimental: as §1, §2, §3, §4

[7] = system: S. haemolyticus 05 (Meth^R); assay: Broth microdilution MIC (NCCLS); format: cell-based; conditions: Staphylococcus haemolyticus, Mueller-Hinton Broth, 24 h at 35 °C
Experimental: as §1, §2, §3, §4

E. faecalis ATCC 29212 = assay: Broth microdilution MIC (NCCLS); format: cell-based; conditions: Enterococcus faecalis, ATCC29212, Mueller-Hinton Broth, 24 h at 35 °C
Experimental: as §1, §2, §3, §4

E. faecalis VanB (Van^R) = assay: Broth microdilution MIC (NCCLS); format: cell-based; conditions: Enterococcus faecalis, Mueller-Hinton Broth, 24 h at 35 °C
Experimental: as §1, §2, §3, §4

E. faecium VanA (Van^R) = assay: Broth microdilution MIC (NCCLS); format: cell-based; conditions: Enterococcus faecium, Mueller-Hinton Broth, 24 h at 35 °C
Experimental: as §1, §2, §3, §4

[8] = system: S. aureus PC1 (Meth^S)(lac^+); assay: Broth microdilution MIC (NCCLS); format: cell-based; conditions: Staphylococcus aureus; S. aureus PC1 (Meth^S)(lac^+); Mueller-Hinton Broth, 24 h at 35 °C; read-out: MIC
Experimental: as §1, §2, §3, §4

E. faecium ATCC 35667 = assay: Broth microdilution MIC (NCCLS); format: cell-based; conditions: Enterococcus faecium, ATCC35667, Mueller-Hinton Broth, 24 h at 35 °C
Experimental: as §1, §2, §3, §4

Structure (SMILES)	fraction unbound [1]	Efficacy in murine septicemia %survival ([2]; Dose 5 mg/kg)	Efficacy in murine septicemia %survival ([2]; Dose 10 mg/kg)	ED50 ([2]; Staphylococcus aureus, ATCC13709, sc, read-out: Efficacy in murine septicemia ED50)	stability in rat serum (statement in words) [3]	MIC (E. coli ATCC25992)	MIC (E. faecium A491 (Amp^R))	MIC [4]	MIC (S. aureus ATCC 29213)	MIC [5]	MIC [6]	MIC (P. aeruginosa ATCC 27853)	MIC [7]	MIC (E. faecalis ATCC 29212)	MIC (E. faecalis VanB (Van^R))	MIC (E. faecium VanA (Van^R))	MIC [8]	MIC (E. faecium ATCC 35667)
CN[C@H](CC(C)C)C(=O)N[C@H]1C(=O)N[C@@H](CC(N)=O)C(=O)N[C@H]2C(=O)N[C@H]3C(=O)N[C@H](C(=O)N[C@H](C(=O)O)c4cc(O)cc(O)c4-c4cc3ccc4O)[C@H](O)c3ccc(c(Cl)c3)Oc3cc2cc(c3O[C@@H]2O[C@H](CO)[C@@H](O)[C@H](O)[C@H]2O[C@H]2C[C@](C)(N)[C@H](O)[C@H](C)O2)Oc2ccc(cc2Cl)[C@H]1O [Van, Vancomycin]	0.45	5/100%	10/100%	2.41 mg/kg	–	–	–	–	–	–	–	–	–	–	–	–	–	–
NCCSCc1ccncc1SC1=C(C(=O)O)N2C(=O)[C@@H](NC(=O)/C(=N\O)c3nsc(N)n3)[C@H]2SC1 [Cmpd 4, (7R)-7-[(Z)-2-(5-amino-1,2,4-thiadiazol-3-yl)-2-(hydroxyimino)acetamido]-3-[4-(2-aminoethylthiomethyl)pyrid-3-ylthio]-3-cephem-4-carboxylic acid]	–	–	–	–	improved stability	4 µg/mL (≈ 7.03 µM)	> 32 µg/mL	8 µg/mL (≈ 14.1 µM)	0.5 µg/mL (≈ 0.879 µM)	16 µg/mL (≈ 28.1 µM)	8 µg/mL (≈ 14.1 µM)	> 32 µg/mL	16 µg/mL (≈ 28.1 µM)	2 µg/mL (≈ 3.52 µM)	2 µg/mL (≈ 3.52 µM)	8 µg/mL (≈ 14.1 µM)	0.5 µg/mL (≈ 0.879 µM)	8 µg/mL (≈ 14.1 µM)
